Laboratory results published in patent US20250366475A1, “HERBICIDAL COMBINATIONS AND A METHOD FOR CONTROLLING UNDESIRED VEGETATION” (UPL Mauritius Limited, priority 2022, published 2025).

Test system: Brachiaria decumbens
Assay: Post-emergence herbicidal activity, efficacy on Brachiaria decumbens (Colby method for expected efficacy)
Format: in vivo
Description: Methodology: Trials were conducted to evaluate the efficacy of the combinations comprising L-glufosinate ammonium and the additional herbicides on Brachiaria genus weeds.
All treatments were in 4 replications per treatment with a spray volume of about 150 L/ha.
Efficacy Evaluation: The expected efficacy of a combination comprising L-glufosinate ammonium and additional herbicides was calculated using the well-established Colby method.
In the Colby method, the expected (or predicted) response of a combination of herbicides is calculated by taking the product of the observed response for each individual component of the combination when applied alone, divided by 100, and subtracting this value from the sum of the observed response for each component when applied alone. An unexpected enhancement in efficacy of the combination is then determined by comparing the observed response of the combination to the expected (or predicted) response as calculated from the observed response of each individual component alone. […] The Colby method requires only a single dose of each herbicide applied alone and the mixture of both doses. The formula used to calculate the expected efficacy (EE) which was compared with the observed efficacy (OE) to determine the efficacy of the present disclosure is explained hereinbelow:
The expected efficacy for a combination of two active ingredients is as follows:
[formula] • wherein, • A=Observed efficacy of active ingredient A at the same concentration as used in the mixture. • B=Observed efficacy of the active ingredient B at the same concentration as used in the mixture.

Cc1ccc2c(c1)[C@H](Nc1nc(N)nc(C(C)F)n1)[C@@H](C)C2 (some centres unmarked) [Indaziflam]
Observed efficacy (%) (50 g a.i./ha, 7 DAA, Table 8): 50%
Observed efficacy (%) (50 g a.i./ha, 14 DAA, Table 8): 75%
Observed efficacy (%) (50 g a.i./ha, 21 DAA, Table 8): 90%

CS(=O)(=O)c1cc(C(F)(F)F)ccc1C(=O)c1cnoc1C1CC1 [Isoxaflutole]
Observed efficacy (%) (60 g a.i./ha, 7 DAA, Table 9): 45%
Observed efficacy (%) (60 g a.i./ha, 14 DAA, Table 9): 70%
Observed efficacy (%) (60 g a.i./ha, 21 DAA, Table 9): 85%
Observed efficacy (%) (60 g a.i./ha, 28 DAA, Table 9): 75%

CP(=O)(O)CC[C@H](N)C(=O)O.N [L-glufosinate ammonium]
Observed efficacy (%) (150 g a.i./ha, 3 DAA, Table 13): 40%
Observed efficacy (%) (150 g a.i./ha, 3 DAA, Table 16): 40%
Observed efficacy (%) (150 g a.i./ha, 7 DAA, Table 7): 65%
Observed efficacy (%) (150 g a.i./ha, 7 DAA, Table 8): 75%
Observed efficacy (%) (150 g a.i./ha, 7 DAA, Table 9): 70%
Observed efficacy (%) (150 g a.i./ha, 7 DAA, Table 10): 65%
Observed efficacy (%) (150 g a.i./ha, 7 DAA, Table 11): 75%
Observed efficacy (%) (150 g a.i./ha, 7 DAA, Table 12): 65%
Observed efficacy (%) (150 g a.i./ha, 14 DAA, Table 7): 70%
Observed efficacy (%) (150 g a.i./ha, 14 DAA, Table 8): 65%
Observed efficacy (%) (150 g a.i./ha, 14 DAA, Table 9): 65%
Observed efficacy (%) (150 g a.i./ha, 14 DAA, Table 10): 70%
Observed efficacy (%) (150 g a.i./ha, 14 DAA, Table 11): 85%
Observed efficacy (%) (150 g a.i./ha, 14 DAA, Table 12): 70%
Observed efficacy (%) (150 g a.i./ha, 14 DAA, Table 15): 75%
Observed efficacy (%) (150 g a.i./ha, 21 DAA, Table 7): 70%
Observed efficacy (%) (150 g a.i./ha, 21 DAA, Table 8): 60%
Observed efficacy (%) (150 g a.i./ha, 21 DAA, Table 9): 60%
Observed efficacy (%) (150 g a.i./ha, 21 DAA, Table 10): 70%
Observed efficacy (%) (150 g a.i./ha, 21 DAA, Table 11): 85%
Observed efficacy (%) (150 g a.i./ha, 21 DAA, Table 12): 70%
Observed efficacy (%) (150 g a.i./ha, 21 DAA, Table 15): 70%
Observed efficacy (%) (150 g a.i./ha, 28 DAA, Table 7): 60%
Observed efficacy (%) (150 g a.i./ha, 28 DAA, Table 9): 60%
Observed efficacy (%) (150 g a.i./ha, 28 DAA, Table 10): 60%
Observed efficacy (%) (150 g a.i./ha, 28 DAA, Table 11): 85%
Observed efficacy (%) (150 g a.i./ha, 28 DAA, Table 12): 60%
Observed efficacy (%) (150 g a.i./ha, 28 DAA, Table 14): 60%
Observed efficacy (%) (150 g a.i./ha, 28 DAA, Table 15): 60%
Observed efficacy (%) (150 g a.i./ha, 35 DAA, Table 14): 55%
Observed efficacy (%) (150 g a.i./ha, 35 DAA, Table 15): 55%

CCc1cccc(C)c1N(COC(C)C)C(=O)CCl [Propisochlor]
Observed efficacy (%) (540 g a.i./ha, 7 DAA, Table 12): 0%
Observed efficacy (%) (540 g a.i./ha, 14 DAA, Table 12): 0%
Observed efficacy (%) (540 g a.i./ha, 21 DAA, Table 12): 0%
Observed efficacy (%) (540 g a.i./ha, 28 DAA, Table 12): 0%

Cn1nc(C(F)(F)F)c(CS(=O)(=O)C2=NOC(C)(C)C2)c1OC(F)F [Pyroxasulfone]
Observed efficacy (%) (75 g a.i./ha, 7 DAA, Table 10): 0%
Observed efficacy (%) (75 g a.i./ha, 14 DAA, Table 10): 15%
Observed efficacy (%) (75 g a.i./ha, 21 DAA, Table 10): 25%
Observed efficacy (%) (75 g a.i./ha, 28 DAA, Table 10): 20%

CCc1cccc(C)c1N(C(=O)CCl)[C@@H](C)COC [S-metolachlor]
Observed efficacy (%) (960 g a.i./ha, 7 DAA, Table 7): 0%
Observed efficacy (%) (960 g a.i./ha, 14 DAA, Table 7): 0%
Observed efficacy (%) (960 g a.i./ha, 21 DAA, Table 7): 0%
Observed efficacy (%) (960 g a.i./ha, 28 DAA, Table 7): 0%

CS(=O)(=O)c1ccc(C(=O)C2C(=O)CCCC2=O)c([N+](=O)[O-])c1 [mesotrione, Mesotrione]
Observed efficacy (%) (100 g a.i./ha, 3 DAA, Table 16): 10%

CCN(CC)C(=O)C(C)Oc1cccc2ccccc12 (centres unmarked) [napropamide, Napropamide]
Observed efficacy (%) (675 g a.i./ha, 7 DAA, Table 11): 5%
Observed efficacy (%) (675 g a.i./ha, 14 DAA, Table 11): 5%
Observed efficacy (%) (675 g a.i./ha, 21 DAA, Table 11): 5%
Observed efficacy (%) (675 g a.i./ha, 28 DAA, Table 11): 0%

CCOC(=O)C(C)Oc1ccc(Oc2cnc3cc(Cl)ccc3n2)cc1 (centres unmarked) [quizalofop-ethyl, Quizalofop-ethyl]
Observed efficacy (%) (25 g a.i./ha, 28 DAA, Table 14): 35%
Observed efficacy (%) (25 g a.i./ha, 35 DAA, Table 14): 30%

C[C@@H](Oc1ccc(Oc2cnc3cc(Cl)ccc3n2)cc1)C(=O)OCC1CCCO1 (some centres unmarked) [quizalofop-p-tefuryl, Quizalofop-p-tefuryl]
Observed efficacy (%) (25 g a.i./ha, 14 DAA, Table 15): 20%
Observed efficacy (%) (25 g a.i./ha, 21 DAA, Table 15): 10%
Observed efficacy (%) (25 g a.i./ha, 28 DAA, Table 15): 5%
Observed efficacy (%) (25 g a.i./ha, 35 DAA, Table 15): 5%

CS(=O)(=O)c1ccc(C(=O)C2C(=O)CCCC2=O)c(Cl)c1COCC(F)(F)F [tembotrione, Tembotrione]
Observed efficacy (%) (53 g a.i./ha, 3 DAA, Table 13): 8%
